Test results from PMC11802822, “Comprehensive safety and toxicity analysis of 2,2’-Bipyridine derivatives in combating MRSA biofilm formation and persistence” (Frontiers in Cellular and Infection Microbiology, 2025).
≈ marks a conversion by molar mass, not a printed value. Where “and” joins values, the source holds several entries; their conditions need not be identical. Identical values can stand only once.

What was measured:
B. subtilis (MTCC 441) = assay: Agar well diffusion
S. aureus (MTCC737) [1] = assay: Broth microdilution MIC
MTCC 737 [2] = assay: Biofilm inhibition assay (crystal violet); conditions: S. aureus; at MIC or higher concentrations
Procedure: After incubation, cells were washed with 1X PBS, and stained with 100 µl of Crystal Violet dye for 15 min, and rinsed again with 1X PBS.

S. aureus (MTCC737) [3] = assay: Agar well diffusion
M. luteus (MTCC 106) = assay: Agar well diffusion
Cytotoxicity (MTT assay) = assay type: cell-based, murine; conditions: mouse
Procedure: (§1) The murine fibroblast 3T3 L-1 cell line was procured from the National Centre for Cell Science (NCCS), Pune, India. The 3T3 L-1 cells were incubated at 37°C in an incubator maintained at 95% humidity and 5% CO2 in DMEM medium complemented with 10% fetal bovine serum (FBS) and 1% penicillin-streptomycin.
(§2) Synthesized derivatives were evaluated for cytotoxicity in a 3T3-L1 cell line using the MTT assay ([Ernawati et al., 2022]). 8000 cells/well were added in 96-well tissue culture flat-bottom microtiter plates for 24 h and then incubated with synthesized molecules (0-400 µg/ml) for 48 h at 37°C in a CO2 incubator. DMSO was used as solvent at a concentration of 0.1% to ensure that any observed effects were not attributable to the solvent itself, whereas 1 µg/ml doxorubicin was used in toxicity tests as a positive control. Subsequently, the media was replaced with MTT solution (100 µl) diluted in fresh media (0.5 mg/ml), and incubated for 4 h. After incubation, 100 µl of stop solution (50% DMF with 20% SDS) was added to dissolve the formazan crystals, and the plates were further incubated for 1 h. Absorbance was measured at 570 nm using BioTEK Synergy multi-plate reader ([Mosmann, 1983]; [Pratelli et al., 2023]). Percent cell viability was calculated using the following formula:
(§3) Cell viability (%)=Absorbance (Untreated - blank) - Absorbance (Test sample- blank)/Absorbance (Untreated - blank)×100

E. coli (MTCC739) [4] = assay: Broth microdilution MIC
MRSA 831 (MRSA) = assay: Agar well diffusion; conditions: MRSA 831, 50 µg/ml, ND = Not detected
MTCC 737 [5] = assay: Transmission electron microscopy; conditions: S. aureus MTCC 737; 100 µg/ml, 12 h
P. aeruginosa (MTCC1934) [6] = assay: Agar well diffusion
MRSA 831 [7] = assay: Broth microdilution MIC; conditions: 18 h
MRSA 831 [8] = assay: Transmission electron microscopy; conditions: 100 µg/ml, 12 h
V. cholerae (MTCC 3906) [9] = assay: Agar well diffusion; assay type: cell-based, Vibrio cholerae
MRSA 831 persister cells = assay: Persister killing assay; assay type: cell-based, methicillin-resistant S. aureus; conditions: MRSA persisters; 4-fold MIC
Procedure: To evaluate the persister-killing activity of 2,2’-Bipy derivatives, MTCC 737 and MRSA 831 cells were grown overnight to the stationary phase at 37°C ([Kim et al., 2018b]). […]. The bacterial densities of persisters were recorded at OD600 at hourly intervals from 0 to 6 h.

MTCC 737 [10] = assay: Biofilm imaging by confocal laser scanning microscopy (SYTO 9/PI); conditions: derivatives 100 µg/ml, 24 h
Text: Using SYTO 9 and PI dyes. […] Two independent experiments were done in triplicate.

E. coli (MTCC739) [11] = assay: Agar well diffusion
V. cholerae (MTCC 3906) [12] = assay: Broth microdilution MIC; assay type: cell-based, Vibrio cholerae
K. pneumoniae (MTCC 618) [13] = assay: Broth microdilution MIC
P. aeruginosa (MTCC1934) [14] = assay: Broth microdilution MIC
K. pneumoniae (MTCC 618) [15] = assay: Agar well diffusion; conditions: 50 µg/ml, ND = Not detected
3T3-L1 cell line = assay: Cytotoxicity (MTT assay); assay type: cell-based, murine
Procedure: as §1, §2, §3

MRSA = tested on: MRSA; parameters: method as in Lee et al., 2017; conditions: ref Lee et al., 2017; cited from earlier work
MRSA 831 [16] = assay: PI uptake assay; assay type: cell-based, methicillin-resistant S. aureus; conditions: derivatives 100 µg/ml, Polymyxin B 10 μM, 1 h
Procedure: (§4) MTCC 737 and MRSA 831 were grown, washed, and resuspended in 5 mM HEPES (pH 7.2), with the OD600 normalized to 0.5. […] Polymyxin B (10 μM), a membrane destabilizer, was used as a reference control. Drug-free and vehicle controls (cells treated with 0.5% DMSO) were included to analyze changes in fluorescence. After 1 h of treatment, cultures were centrifuged and stained with 5 µM PI dye for 15 min. Following staining, the cultures were washed twice to remove the extra dye, and fluorescence was recorded at 485 nm excitation and 525 nm emission wavelengths ([Zhou et al., 2020]).

MTCC 737 [17] = assay: PI uptake assay; assay type: cell-based, Staphylococcus aureus; conditions: derivatives 100 µg/ml, Polymyxin B 10 μM, 1 h
Procedure: as §4

With `COc1ccccc1C(=NO)c1cc(C)cc(-c2cc(C)ccn2)n1` [NPS4, N-[(4,4’-dimethyl[2,2’-bipyridin]-6-yl)(2-methoxyphenyl)methylidene] hydroxylamine] the zone of inhibition at 50 µg/mL (B. subtilis (MTCC 441); Bacillus subtilis, MTCC441) was 10 ± 1 mm, the MIC (S. aureus (MTCC737) [1]; Staphylococcus aureus, MTCC737, 18 h, read-out: Minimum inhibitory concentration) was 50 µg/mL (≈ 150 µM) and the “Biofilm formation inhibition (in words)” value (MTCC 737 [2]) was “highly effective”. It also gave a zone of inhibition at 50 µg/mL (S. aureus (MTCC737) [3]; Staphylococcus aureus, MTCC737) of 19 mm, a zone of inhibition at 50 µg/mL (M. luteus (MTCC 106); Micrococcus luteus, MTCC106) of 19.3 ± 0.58 mm and an IC50 at 24 h (Cytotoxicity (MTT assay)) of 279 µg/mL. The IC50 at 48 h (Cytotoxicity (MTT assay)) was 240 µg/mL, the MIC (E. coli (MTCC739) [4]; Escherichia coli, MTCC739, 18 h, read-out: Minimum inhibitory concentration) was greater than 100 µg/mL and the Zone of inhibition (MRSA 831 (MRSA)) was 14.33 ± 0.58 mm. The zone of inhibition at 50 µg/mL (MRSA 831 (MRSA); Staphylococcus aureus, MRSA) was 14 mm, the “Cell morphology (TEM)” value (MTCC 737 [5]) was “Significant morphological alterations” and the zone of inhibition at 50 µg/mL (P. aeruginosa (MTCC1934) [6]; Pseudomonas aeruginosa, MTCC1934) was 18 ± 1 mm. The MIC (MRSA 831 [7]; Staphylococcus aureus, MRSA, read-out: Minimum inhibitory concentration) was 50 µg/mL (≈ 150 µM), the “Cell morphology (TEM)” value (MRSA 831 [8]) was “Significant morphological alterations” and the zone of inhibition at 50 µg/mL (V. cholerae (MTCC 3906) [9]; Vibrio cholerae, MTCC3906) was 17.7 ± 3.21 mm. For the same molecule, the “Effect on persister cell counts” value (MRSA 831 persister cells) was “significantly reduced”, the “Biofilm disruption (CLSM)” value (MTCC 737 [10]) was “significant disruption and damage” and the zone of inhibition at 50 µg/mL (E. coli (MTCC739) [11]; Escherichia coli, MTCC739) was 9 ± 1 mm. For the same molecule, the MIC (V. cholerae (MTCC 3906) [12]; Vibrio cholerae, MTCC3906, 18 h, read-out: Minimum inhibitory concentration) was 12.5 µg/mL (≈ 37.5 µM), the MIC (K. pneumoniae (MTCC 618) [13]; Klebsiella pneumoniae, MTCC618, 18 h, read-out: Minimum inhibitory concentration) was greater than 100 µg/mL and the MIC (P. aeruginosa (MTCC1934) [14]; Pseudomonas aeruginosa, MTCC1934, 18 h, read-out: Minimum inhibitory concentration) was greater than 100 µg/mL.

`CCC(=NO)c1cc(OC)cc(-c2cc(OC)ccn2)n1` [NPS5, N-[1-(4,4’-dimethoxy[2,2’-bipyridin]-6-yl)propyldiene]hydroxylamine] gave a Zone of inhibition (B. subtilis (MTCC 441); B. subtilis (MTCC 441), 50 µg/ml, ND = Not detected) of 4.00 ± 0.00 mm, a Minimum inhibitory concentration (S. aureus (MTCC737) [1]; S. aureus (MTCC737), 18 h) of 50 µg/mL (≈ 174 µM) and a Zone of inhibition (S. aureus (MTCC737) [3]; S. aureus (MTCC737), 50 µg/ml, ND = Not detected) of 10.00 ± 1.73 mm. The Zone of inhibition (M. luteus (MTCC 106); M. luteus (MTCC 106), 50 µg/ml, ND = Not detected) was 7.33 ± 2.89 mm, the Minimum inhibitory concentration (E. coli (MTCC739) [4]; E. coli (MTCC739), 18 h) was greater than 100 µg/mL and the Zone of inhibition (MRSA 831 (MRSA)) was 14 mm and 14.33 ± 0.58 mm. It also gave a Zone of inhibition (P. aeruginosa (MTCC1934) [6]; P. aeruginosa (MTCC1934), 50 µg/ml, ND = Not detected) of 18.00 ± 1.00 mm, a Minimum inhibitory concentration (MRSA 831 [7]; MRSA 831) of 50 µg/mL (≈ 174 µM) and a Zone of inhibition (V. cholerae (MTCC 3906) [9]; V. cholerae (MTCC 3906), 50 µg/ml, ND = Not detected) of 17.67 ± 3.21 mm. The Zone of inhibition (E. coli (MTCC739) [11]; E. coli (MTCC739), 50 µg/ml, ND = Not detected) was 9.00 ± 1.00 mm, the Minimum inhibitory concentration (V. cholerae (MTCC 3906) [12]; V. cholerae (MTCC 3906), 18 h) was 50 µg/mL (≈ 174 µM) and the Minimum inhibitory concentration (K. pneumoniae (MTCC 618) [13]; K. pneumoniae (MTCC 618), 18 h) was greater than 100 µg/mL. It also gave a Zone of inhibition (K. pneumoniae (MTCC 618) [15]) of 13.00 ± 1.00 mm and a Minimum inhibitory concentration (P. aeruginosa (MTCC1934) [14]; P. aeruginosa (MTCC1934), 18 h) greater than 100 µg/mL.

In the case of `CCC(=NO)c1cc(OC)cc(-c2cc(OC)ccn2)n1` [NPS6, N-[1-(4,4’-dimethoxy[2,2’-bipyridin]-6-yl)propyldiene]hydroxylamine], the “IC50 (cytotoxicity, MTT)” value (3T3-L1 cell line) is reported as 168.1 µg/mL.

For `COc1cc(-c2ccccn2)nc(CO)c1SC` [collismycin C], the MRSA biofilm formation (MRSA) is listed as “inhibited MRSA biofilm formation”.

In the case of Polymyxin B [reference compound], the “PI fluorescence (membrane integrity)” value (MRSA 831 [16]) is reported as “higher fluorescence” and the “PI fluorescence (membrane integrity)” value (MTCC 737 [17]) is reported as “higher fluorescence”.
